This is an account of results in patent US10183952B2, “Thienopyrroles as histone demethylase inhibitors” (ISTITUTO EUROPEO DI ONCOLOGIA S.R.L., priority 2014, dated 2019).

In assay [1] the test system is human leukemia MV4-11 cells. The assay is described as follows: Cell growth, CellTiter-Fluor Cell Viability Assay, MV4-11. The assay is classed as cell-based. Conditions: 48 h incubation, read-out: IC50 against human leukemia MV4-11 cells. The source says:
(§1) The CellTiter-Fluor™ Cell Viability Assay measures the conserved and constitutive protease activity within live cells and therefore acts as a marker for cell viability.
(§2) CellTiter-Flor® (Promega) is as a nonlytic, single-reagent-addition fluorescence assay that measures the relative number of living cells in a culture population after experimental manipulation. The CellTiter-Fluor™ Cell Viability Assay measures the conserved and constitutive protease activity within live cells and therefore acts as a marker for cell viability.
(§3) Human leukemia MV4-11 cells, (obtained from the Deutsche Sammlung von Mikroorganismen und Zellkulturen, ACC 102) or NB4 cells, (obtained from the Deutsche Sammlung von Mikroorganismen und Zellkulturen) in exponential growth, were incubated for 48 h with different concentrations of the inhibitors. After 48 h a volume of CellTiter-Fluor® Reagent equal to one fifth of volume of cell culture medium was added. The content was mixed and incubates for at least 90 min at 37° C. degree to obtain a stable signal. The fluorescence was recorded using an excitation wavelength of 360 nm and an emission at 535 nm. The IC50 was calculated using GraphPad Software.

The test system of the next assay is human leukemia NB4 cells. The assay is described as follows: Cell growth, CellTiter-Fluor Cell Viability Assay, NB4. The assay is classed as cell-based. Conditions: NB-4, 48 h incubation, read-out: IC50 against human leukemia NB4 cells.
From the text: as §1, §2, §3

Assay [2] has as its target human recombinant KDM1A/CoREST protein (Homo sapiens, UniProt O60341). The assay is described as follows: Assay of enzyme inhibition of KDM1A (LSD1), TR-FRET.
Procedure: The intensity of the light emission is proportional to the level of biotinylated reaction product. The complex of human recombinant KDM1A/CoREST protein was produced in E. coli as separate proteins and co-purified as previously described.
Demethylase reaction was started by the addition of 50 nM histone H3K4 monomethylated.
The resulting mixture was incubated in the dark for 1 h at RT.

Counter-ions that a name gives are not always drawn.

Usually IC50 stands for the midpoint of a concentration-inhibition curve. For the compound `CCn1c(C(=O)Nc2cccc(COC)c2COc2ccc(OC[C@@H]3CCNC3)cc2)cc2sccc21` [Example 53, 4-Ethyl-N-[3-(methoxymethyl)-2-[[4-[[(3R)-pyrrolidin-3-yl]methoxy]phenoxy]methyl]phenyl]thieno[3,2-b]pyrrole-5-carboxamide; trifluoroacetic acid], the IC50 is under 10 µM in assay [1], under 20 µM in the assay on human leukemia NB4 cells and under 10 µM in assay [2].
In the case of `Cn1c(C(=O)Nc2cccc(CN3CCOCC3)c2COc2ccc(OC3CCNCC3)cc2)cc2sccc21` [Example 54, 4-Methyl-N-[3-(morpholinomethyl)-2-[[4-(4-piperidyloxy)phenoxy]methyl]phenyl]thieno[3,2-b]pyrrole-5-carboxamide dihydrochloride], the IC50 in assay [1] was under 10 µM; in the assay on human leukemia NB4 cells, under 20 µM; in assay [2], under 10 µM.
Take `Cc1ccc(COc2ccc(OCC3CCNC3)cc2)c(NC(=O)c2cc3sccc3n2C)c1` (stereo not drawn) [Example 55, 4-Methyl-N-[5-methyl-2-[[4-(pyrrolidin-3-ylmethoxy)phenoxy]methyl]phenyl]thieno[3,2-b]pyrrole-5-carboxamide]: the figures for the IC50 (in assay [1]; in the assay with human leukemia NB4 cells; in assay [2]) were under 10 µM, under 20 µM and under 10 µM, respectively.
For `Cn1c(C(=O)Nc2ccccc2CCc2ccc(OC3CCNCC3)cc2)cc2sccc21` [Example 61, 4-Methyl-N-[2-[2-[4-(4-piperidyloxy)phenyl]ethyl]phenyl]thieno[3,2-b]pyrrole-5-carboxamide hydrochloride], the IC50 in assay [1] is under 10 µM; with human leukemia NB4 cells, under 20 µM; in assay [2] it was under 10 µM.
Regarding `Cn1c(C(=O)Nc2cccc(CCc3ccc(OC4CCNCC4)cc3)c2)cc2sccc21` [Example 62, 4-Methyl-N-[3-[2-[4-(4-piperidyloxy)phenyl]ethyl]phenyl]thieno[3,2-b]pyrrole-5-carboxamide hydrochloride], the figures for the half-maximal inhibitory concentration (IC50) (in assay [1]; with human leukemia NB4 cells; in assay [2]) were under 10 µM, under 20 µM and under 10 µM, respectively.
Regarding `Cn1c(C(=O)Nc2ccccc2CNc2ccc(OC3CCNCC3)cc2)cc2sccc21` [Example 63, 4-Methyl-N-[2-[[4-(4-piperidyloxy)anilino]methyl]phenyl]thieno[3,2-b]pyrrole-5-carboxamide dihydrochloride], the IC50 in assay [1] was under 10 µM; with human leukemia NB4 cells, under 20 µM; in assay [2], under 10 µM.
